Columns and labels:
[1] = Solubility of the compound of formula (I) at different pH; assay type: physicochemical
Method: (§1) The compound of formula (I) has strong hydrophobicity, poor water solubility, and significant pH dependence. It has high solubility at low pH (about 30 mg/ml at pH 1.2), and the solubility decreases sharply with increasing pH (about 10 ug/ml in water). […] Therefore, it is an urgent problem to overcome the shortcomings of the compound of formula (I), such as strong hydrophobicity, poor water solubility, and thermal instability, and to prepare it into a formulation with stable quality, good patient compliance, and wide clinical applicability.

[2] = Thermal stability of the compound of formula (I); assay type: physicochemical; details: degradation impurities generated at high temperatures
Method: as §1

solubility ([1]; in water): ~0.01 mg/mL | solubility ([1]; simulated gastric fluid, at pH 1.2): ~30 mg/mL | thermal stability [2]: thermally unstable
Compound: COc1cc(N2CCC(N(C)C)CC2)ccc1Nc1nc2c(c(Nc3ccccc3S(=O)(=O)C(C)C)n1)CCN2 [compound of formula (I), N^2-(4-(4-(dimethylamino)piperidin-1-yl)-2-methoxyphenyl)-N^4-(2-(isopropylsulfonyl)phenyl)-6,7-dihydro-5H-pyrrolo[2,3-d]pyrimidine-2,4-diamine]

— EP4691458A1, “SELF-MICROEMULSION PHARMACEUTICAL PREPARATION COMPOSITION CONTAINING ALK KINASE INHIBITOR AND PREPARATION METHOD THEREFOR” (Shouyao Holdings (Beijing) Co., Ltd., priority 2023, dated 2024)
